In ChEMBL document CHEMBL1151757, “Synthesis, radiosynthesis, and biological evaluation of fluorine-18-labeled 2beta-carbo(fluoroalkoxy)-3beta-(3'-((Z)-2-haloethenyl)phenyl)nortropanes: candidate radioligands for in vivo imaging of the serotonin transporter with positron emission tomography” (J Med Chem, 2008):

What was measured:
[1] = Ratio of drug uptake in thalamus to cerebellum in anesthetized cynomolgus monkey after 195 mins postinjection; format: ADME, organism-based, Macaca fascicularis; settings: in vivo, 3.25 h
[2] = Drug uptake in anesthetized cynomolgus monkey brain cerebellum after 235 mins postinjection; format: ADME, organism-based, Macaca fascicularis; settings: in vivo
[3] = system: Caudate; assay: Drug uptake in anesthetized cynomolgus monkey brain caudate after 75 mins postinjection; format: ADME, organism-based, Macaca fascicularis, Caudate nucleus; settings: in vivo, 1.25 h
[4] = Ratio of drug uptake in pons to cerebellum in anesthetized cynomolgus monkey after 185 mins postinjection; format: ADME, organism-based, Macaca fascicularis; settings: in vivo
[5] = Ratio of drug uptake in midbrain to cerebellum in anesthetized cynomolgus monkey after 18.5 mins postinjection; format: ADME, organism-based, Macaca fascicularis; settings: in vivo
[6] = system: Thalamus; assay: Drug uptake in anesthetized cynomolgus monkey brain thalamus after 125 mins postinjection; format: ADME, organism-based, Macaca fascicularis; set-up: unit not given here; settings: in vivo
[7] = Ratio of drug uptake in pons to cerebellum in anesthetized cynomolgus monkey after 6.5 mins postinjection; format: ADME, organism-based, Macaca fascicularis; settings: in vivo
[8] = Ratio of drug uptake in medulla to cerebellum in anesthetized cynomolgus monkey after 165 mins postinjection; format: ADME, organism-based, Macaca fascicularis; settings: in vivo, 2.75 h
[9] = system: Medulla; assay: Drug uptake in anesthetized cynomolgus monkey brain medulla after 85 mins postinjection; format: ADME, organism-based, Macaca fascicularis; settings: in vivo
[10] = system: Caudate; assay: Drug uptake in anesthetized cynomolgus monkey brain caudate after 135 mins postinjection; format: ADME, organism-based, Macaca fascicularis, Caudate nucleus; settings: in vivo, 2.25 h
[11] = Ratio of drug uptake in frontal lobe to cerebellum in anesthetized cynomolgus monkey after 145 mins postinjection; format: ADME, organism-based, Macaca fascicularis; settings: in vivo
[12] = system: Midbrain; assay: Drug uptake in anesthetized cynomolgus monkey brain midbrain after 35 mins postinjection; format: ADME, organism-based, Macaca fascicularis; set-up: unit not given here; settings: in vivo
[13] = Drug uptake in anesthetized cynomolgus monkey brain cerebellum after 105 mins postinjection; format: ADME, organism-based, Macaca fascicularis; settings: in vivo, 1.75 h
[14] = Ratio of drug uptake in medulla to cerebellum in anesthetized cynomolgus monkey after 0.5 mins postinjection; format: ADME, organism-based, Macaca fascicularis; settings: in vivo
[15] = system: Putamen; assay: Drug uptake in anesthetized cynomolgus monkey brain putamen after 18.5 mins postinjection; format: ADME, organism-based, Macaca fascicularis; set-up: unit not given here; settings: in vivo
[16] = Ratio of drug uptake in frontal lobe to cerebellum in anesthetized cynomolgus monkey after 75 mins postinjection; format: ADME, organism-based, Macaca fascicularis; settings: in vivo, 1.25 h
[17] = Drug uptake in anesthetized cynomolgus monkey brain frontal lobe after 105 mins postinjection; format: ADME, organism-based, Macaca fascicularis; settings: in vivo, 1.75 h
[18] = Ratio of drug uptake in putamen to cerebellum in anesthetized cynomolgus monkey after 65 mins postinjection; format: ADME, organism-based, Macaca fascicularis; settings: in vivo
[19] = Drug uptake in anesthetized cynomolgus monkey brain cerebellum after 22.5 mins postinjection; format: ADME, organism-based, Macaca fascicularis; settings: in vivo, 0.375 h
[20] = system: Midbrain; assay: Drug uptake in anesthetized cynomolgus monkey brain midbrain after 45 mins postinjection; format: ADME, organism-based, Macaca fascicularis; set-up: unit not given here; settings: in vivo, 0.75 h
[21] = system: Putamen; assay: Drug uptake in anesthetized cynomolgus monkey brain putamen after 0.5 mins postinjection; format: ADME, organism-based, Macaca fascicularis; settings: in vivo
[22] = system: Pons; assay: Drug uptake in anesthetized cynomolgus monkey brain pons after 125 mins postinjection; format: ADME, organism-based, Macaca fascicularis; settings: in vivo
[23] = Ratio of drug uptake in pons to cerebellum in anesthetized cynomolgus monkey after 215 mins postinjection; format: ADME, organism-based, Macaca fascicularis; settings: in vivo
[24] = Ratio of drug uptake in occipital lobe to cerebellum in anesthetized cynomolgus monkey after 4.5 mins postinjection; format: ADME, organism-based, Macaca fascicularis; settings: in vivo, 0.075 h
[25] = Drug uptake in anesthetized cynomolgus monkey brain cerebellum after 4.5 mins postinjection; format: ADME, organism-based, Macaca fascicularis; settings: in vivo, 0.075 h
[26] = system: Thalamus; assay: Drug uptake in anesthetized cynomolgus monkey brain thalamus after 12.5 mins postinjection; format: ADME, organism-based, Macaca fascicularis; set-up: unit not given here; settings: in vivo
[27] = system: Pons; assay: Drug uptake in anesthetized cynomolgus monkey brain pons after 35 mins postinjection; format: ADME, organism-based, Macaca fascicularis; settings: in vivo
[28] = system: Putamen; assay: Drug uptake in anesthetized cynomolgus monkey brain putamen after 27.5 mins postinjection; format: ADME, organism-based, Macaca fascicularis; set-up: unit not given here; settings: in vivo
[29] = Drug uptake in anesthetized cynomolgus monkey brain occipital lobe after 145 mins postinjection; format: ADME, organism-based, Macaca fascicularis; settings: in vivo
[30] = Drug uptake in anesthetized cynomolgus monkey brain occipital lobe after 185 mins postinjection; format: ADME, organism-based, Macaca fascicularis; settings: in vivo
[31] = Ratio of drug uptake in thalamus to cerebellum in anesthetized cynomolgus monkey after 27.5 mins postinjection; format: ADME, organism-based, Macaca fascicularis; settings: in vivo
[32] = Ratio of drug uptake in thalamus to cerebellum in anesthetized cynomolgus monkey after 9.5 mins postinjection; format: ADME, organism-based, Macaca fascicularis; settings: in vivo
[33] = system: Thalamus; assay: Drug uptake in anesthetized cynomolgus monkey brain thalamus after 0.5 mins postinjection; format: ADME, organism-based, Macaca fascicularis; settings: in vivo
[34] = system: Pons; assay: Drug uptake in anesthetized cynomolgus monkey brain pons after 45 mins postinjection; format: ADME, organism-based, Macaca fascicularis; settings: in vivo, 0.75 h
[35] = system: Pons; assay: Drug uptake in anesthetized cynomolgus monkey brain pons after 135 mins postinjection; format: ADME, organism-based, Macaca fascicularis; settings: in vivo, 2.25 h
[36] = Ratio of drug uptake in frontal lobe to cerebellum in anesthetized cynomolgus monkey after 95 mins postinjection; format: ADME, organism-based, Macaca fascicularis; settings: in vivo
[37] = Drug uptake in anesthetized cynomolgus monkey brain cerebellum after 75 mins postinjection; format: ADME, organism-based, Macaca fascicularis; settings: in vivo, 1.25 h
[38] = system: Medulla; assay: Drug uptake in anesthetized cynomolgus monkey brain medulla after 65 mins postinjection; format: ADME, organism-based, Macaca fascicularis; settings: in vivo
[39] = Drug uptake in anesthetized cynomolgus monkey brain occipital lobe after 65 mins postinjection; format: ADME, organism-based, Macaca fascicularis; settings: in vivo
[40] = system: Medulla; assay: Drug uptake in anesthetized cynomolgus monkey brain medulla after 2.5 mins postinjection; format: ADME, organism-based, Macaca fascicularis; settings: in vivo
[41] = Drug uptake in anesthetized cynomolgus monkey brain frontal lobe after 165 mins postinjection; format: ADME, organism-based, Macaca fascicularis; settings: in vivo, 2.75 h
[42] = system: Putamen; assay: Drug uptake in anesthetized cynomolgus monkey brain putamen after 225 mins postinjection; format: ADME, organism-based, Macaca fascicularis; settings: in vivo, 3.75 h
[43] = Ratio of drug uptake in medulla to cerebellum in anesthetized cynomolgus monkey after 155 mins postinjection; format: ADME, organism-based, Macaca fascicularis; settings: in vivo
[44] = system: Putamen; assay: Drug uptake in anesthetized cynomolgus monkey brain putamen after 75 mins postinjection; format: ADME, organism-based, Macaca fascicularis; set-up: unit not given here; settings: in vivo, 1.25 h
[45] = system: Pons; assay: Drug uptake in anesthetized cynomolgus monkey brain pons after 205 mins postinjection; format: ADME, organism-based, Macaca fascicularis; settings: in vivo
[46] = Drug uptake in anesthetized cynomolgus monkey brain cerebellum after 45 mins postinjection; format: ADME, organism-based, Macaca fascicularis; settings: in vivo, 0.75 h
[47] = Drug uptake in anesthetized cynomolgus monkey brain occipital lobe after 105 mins postinjection; format: ADME, organism-based, Macaca fascicularis; settings: in vivo, 1.75 h

## O=C(OCC[18F])C1C2CCC(CC1c1cccc(/C=C\Br)c1)N2 (centres undefined)
[1]
  Ratio: 1.8
[2]
  Drug uptake: 1.62
[3]
  Drug uptake: 3.94
[4]
  Ratio: 1.9
[5]
  Ratio: 1.2
[6]
  Drug uptake: 4.15
[7]
  Ratio: 1
[8]
  Ratio: 1.8
[9]
  Drug uptake: 4.73
[10]
  Drug uptake: 3.74
[11]
  Ratio: 1.1
[12]
  Drug uptake: 4.68
[13]
  Drug uptake: 2.87
[14]
  Ratio: 0.6
[15]
  Drug uptake: 4.37
[16]
  Ratio: 0.9
[17]
  Drug uptake: 2.69
[18]
  Ratio: 1.5
[19]
  Drug uptake: 3.81
[20]
  Drug uptake: 4.82
[21]
  Drug uptake: 0.01
[22]
  Drug uptake: 4.27
[23]
  Ratio: 1.8
[24]
  Ratio: 0.7
[25]
  Drug uptake: 1.76
[26]
  Drug uptake: 3
[27]
  Drug uptake: 4.22
[28]
  Drug uptake: 4.67
[29]
  Drug uptake: 2.74
[30]
  Drug uptake: 2.37
[31]
  Ratio: 1
[32]
  Ratio: 0.9
[33]
  Drug uptake: 0
[34]
  Drug uptake: 4.45
[35]
  Drug uptake: 4.26
[36]
  Ratio: 0.9
[37]
  Drug uptake: 3.3
[38]
  Drug uptake: 4.81
[39]
  Drug uptake: 3.45
[40]
  Drug uptake: 0.61
[41]
  Drug uptake: 2.38
[42]
  Drug uptake: 3
[43]
  Ratio: 1.7
[44]
  Drug uptake: 5
[45]
  Drug uptake: 3.51
[46]
  Drug uptake: 3.76
[47]
  Drug uptake: 3.15

## O=C(OCCC[18F])C1C2CCC(CC1c1cccc(/C=C\I)c1)N2 (centres undefined)
[1]
  Ratio: 1.5
[2]
  Drug uptake: 1.93
[3]
  Drug uptake: 4.05
[4]
  Ratio: 1.5
[5]
  Ratio: 1
[6]
  Drug uptake: 4.15
[7]
  Ratio: 0.7
[8]
  Ratio: 1.9
[9]
  Drug uptake: 4.79
[10]
  Drug uptake: 3.34
[11]
  Ratio: 1
[12]
  Drug uptake: 5.01
[13]
  Drug uptake: 3.31
[14]
  Ratio: 1.5
[15]
  Drug uptake: 4.42
[16]
  Ratio: 0.7
[17]
  Drug uptake: 2.58
[18]
  Ratio: 1.2
[19]
  Drug uptake: 4.78
[20]
  Drug uptake: 5.02
[21]
  Drug uptake: 0.01
[22]
  Drug uptake: 3.82
[23]
  Ratio: 1.5
[24]
  Ratio: 0.8
[25]
  Drug uptake: 2.5
[26]
  Drug uptake: 3.75
[27]
  Drug uptake: 4.25
[28]
  Drug uptake: 4.9
[29]
  Drug uptake: 2.82
[30]
  Drug uptake: 2.39
[31]
  Ratio: 1
[32]
  Ratio: 0.8
[33]
  Drug uptake: 0.01
[34]
  Drug uptake: 4.5
[35]
  Drug uptake: 4.08
[36]
  Ratio: 0.8
[37]
  Drug uptake: 3.87
[38]
  Drug uptake: 4.96
[39]
  Drug uptake: 3.86
[40]
  Drug uptake: 0.84
[41]
  Drug uptake: 2.08
[42]
  Drug uptake: 3.05
[43]
  Ratio: 1.8
[44]
  Drug uptake: 4.92
[45]
  Drug uptake: 3.34
[46]
  Drug uptake: 4.48
[47]
  Drug uptake: 3.18
